{"source": "patent US12404304B1", "about": "“Telomerase reverse transcriptase (TERT) expression enhancing compounds and methods for using the same” (Sierra Sciences, LLC, priority 2007, dated 2025)", "key": {"[1]": {"test_system": "viable cells in culture", "assay": "Cell viability assay (CellTiter-Glo Luminescent Cell Viability Assay, ATP quantitation, percent of vehicle control)"}, "[2]": {"test_system": "human TERT expression (hTERT mRNA)", "assay": "Quantitative real-time RT-PCR of hTERT mRNA expression (Ct, transcripts) in compound-treated cells", "assay_type": "cell-based", "summary_of_the_method": "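Read-out is cycle threshold, the cycle at which probe fluorescence released by Taq 5′-nuclease activity crosses a set level; Ct falls as hTERT mRNA rises. cDNA of treated and untreated cells was compared, with starting transcripts quantified against a known-cDNA standard curve.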"}}, "data": [{"smiles": "O=C(NCCc1c[nH]c2c(OCc3ccccc3)cccc12)c1cc(-c2cccs2)on1", "note": "[compound 1498]", "values": [{"measurement": "Average Cell Viability after 24 Hours (% DMSO)", "setting": "[1]", "result": 94.63, "unit": "% DMSO"}, {"measurement": "Average Number of hTERT Transcripts", "setting": "[2]", "result": 16.50}]}, {"smiles": "O=C(NCc1nccs1)c1cc(-c2cccs2)on1", "note": "[compound 1499]", "values": [{"measurement": "Average Cell Viability after 24 Hours (% DMSO)", "setting": "[1]", "result": 119.54, "unit": "% DMSO"}, {"measurement": "Average Number of hTERT Transcripts", "setting": "[2]", "result": 17.01}]}, {"smiles": "CN1CCN(c2ccc(CNC(=O)c3cc(-c4cccs4)on3)cc2)CC1", "note": "[compound 1500]", "values": [{"measurement": "Average Cell Viability after 24 Hours (% DMSO)", "setting": "[1]", "result": 110.86, "unit": "% DMSO"}, {"measurement": "Average Number of hTERT Transcripts", "setting": "[2]", "result": 17.14}]}, {"smiles": "COc1cc(CCNC(=O)c2cc(-c3cccs3)on2)cc(OC)c1", "note": "[compound 1501]", "values": [{"measurement": "Average Cell Viability after 24 Hours (% DMSO)", "setting": "[1]", "result": 99.31, "unit": "% DMSO"}, {"measurement": "Average Number of hTERT Transcripts", "setting": "[2]", "result": 24.13}]}, {"smiles": "COc1ccc(CCNC(=O)c2cc(-c3cccs3)on2)cc1O", "note": "[compound 1502]", "values": [{"measurement": "Average Cell Viability after 24 Hours (% DMSO)", "setting": "[1]", "result": 91.65, "unit": "% DMSO"}, {"measurement": "Average Number of hTERT Transcripts", "setting": "[2]", "result": 28.74}]}, {"smiles": "Cc1cc(CNC(=O)c2cc(-c3cccs3)on2)no1", "note": "[compound 1503]", "values": [{"measurement": "Average Cell Viability after 24 Hours (% DMSO)", "setting": "[1]", "result": 108.11, "unit": "% DMSO"}, {"measurement": "Average Number of hTERT Transcripts", "setting": "[2]", "result": 28.94}]}, {"smiles": "CN(C)S(=O)(=O)c1ccc(C(=O)Nc2nc(-c3ccccn3)cs2)cc1", "note": "[compound 1504]", "values": [{"measurement": "Average Cell Viability after 24 Hours (% DMSO)", "setting": "[1]", "result": 76.43, "unit": "% DMSO"}, {"measurement": "Average Number of hTERT Transcripts", "setting": "[2]", "result": 40.27}]}, {"smiles": "O=C(Nc1nc(-c2ccccn2)cs1)c1cc(Cl)sc1Cl", "note": "[compound 1505]", "values": [{"measurement": "Average Cell Viability after 24 Hours (% DMSO)", "setting": "[1]", "result": 70.89, "unit": "% DMSO"}, {"measurement": "Average Number of hTERT Transcripts", "setting": "[2]", "result": 43.28}]}, {"smiles": "O=C(NCCN1CCOCC1)c1cc(-c2ccccc2)on1", "note": "[compound 1506]", "values": [{"measurement": "Average Cell Viability after 24 Hours (% DMSO)", "setting": "[1]", "result": 84.31, "unit": "% DMSO"}, {"measurement": "Average Number of hTERT Transcripts", "setting": "[2]", "result": 52.39}]}, {"smiles": "CCCCOCCCNC(=O)c1cc(-c2cccs2)on1", "note": "[compound 1507]", "values": [{"measurement": "Average Cell Viability after 24 Hours (% DMSO)", "setting": "[1]", "result": 102.58, "unit": "% DMSO"}, {"measurement": "Average Number of hTERT Transcripts", "setting": "[2]", "result": 58.76}]}, {"smiles": "O=C(NCCOc1ccccc1)c1cc(-c2cccs2)on1", "note": "[compound 1508]", "values": [{"measurement": "Average Cell Viability after 24 Hours (% DMSO)", "setting": "[1]", "result": 94.22, "unit": "% DMSO"}, {"measurement": "Average Number of hTERT Transcripts", "setting": "[2]", "result": 59.45}]}, {"smiles": "O=C(NCCN1CCNC1=O)c1cc(-c2cccs2)on1", "note": "[compound 1509]", "values": [{"measurement": "Average Cell Viability after 24 Hours (% DMSO)", "setting": "[1]", "result": 73.34, "unit": "% DMSO"}, {"measurement": "Average Number of hTERT Transcripts", "setting": "[2]", "result": 72.08}]}, {"smiles": "CN(CC1CCCO1)S(=O)(=O)c1ccc(C(=O)Nc2nc(-c3ccccn3)cs2)cc1", "note": "(centres unmarked) [compound 1510]", "values": [{"measurement": "Average Cell Viability after 24 Hours (% DMSO)", "setting": "[1]", "result": 83.99, "unit": "% DMSO"}, {"measurement": "Average Number of hTERT Transcripts", "setting": "[2]", "result": 76.03}]}, {"smiles": "CC(C)CCNC(=O)c1cc(-c2cccs2)on1", "note": "[compound 1511]", "values": [{"measurement": "Average Cell Viability after 24 Hours (% DMSO)", "setting": "[1]", "result": 75.76, "unit": "% DMSO"}, {"measurement": "Average Number of hTERT Transcripts", "setting": "[2]", "result": 88.76}]}, {"smiles": "Cc1ccc(S(=O)(=O)CC(=O)Nc2ncc(-c3ccccn3)s2)cc1", "note": "[compound 1512]", "values": [{"measurement": "Average Cell Viability after 24 Hours (% DMSO)", "setting": "[1]", "result": 81.39, "unit": "% DMSO"}, {"measurement": "Average Number of hTERT Transcripts", "setting": "[2]", "result": 102.66}]}, {"smiles": "Cc1ccn(CCCNC(=O)c2cc(-c3cccs3)on2)n1", "note": "[compound 1513]", "values": [{"measurement": "Average Cell Viability after 24 Hours (% DMSO)", "setting": "[1]", "result": 82.67, "unit": "% DMSO"}, {"measurement": "Average Number of hTERT Transcripts", "setting": "[2]", "result": 102.76}]}, {"smiles": "CN1CCN(CCCNC(=O)c2cc(-c3cccs3)on2)CC1", "note": "[compound 1514]", "values": [{"measurement": "Average Cell Viability after 24 Hours (% DMSO)", "setting": "[1]", "result": 98.72, "unit": "% DMSO"}, {"measurement": "Average Number of hTERT Transcripts", "setting": "[2]", "result": 102.98}]}, {"smiles": "CN(C)CCCCNC(=O)c1cc(-c2cccs2)on1", "note": "[compound 1515]", "values": [{"measurement": "Average Cell Viability after 24 Hours (% DMSO)", "setting": "[1]", "result": 96.89, "unit": "% DMSO"}, {"measurement": "Average Number of hTERT Transcripts", "setting": "[2]", "result": 113.63}]}, {"smiles": "Cn1c(-c2nnc(SCC(=O)NCc3nc4ccccc4n3C)o2)cc2ccccc21", "note": "[compound 1516]", "values": [{"measurement": "Average Cell Viability after 24 Hours (% DMSO)", "setting": "[1]", "result": 87.09, "unit": "% DMSO"}, {"measurement": "Average Number of hTERT Transcripts", "setting": "[2]", "result": 127.39}]}, {"smiles": "CSCCNC(=O)c1cc(-c2cccs2)on1", "note": "[compound 1517]", "values": [{"measurement": "Average Cell Viability after 24 Hours (% DMSO)", "setting": "[1]", "result": 112.40, "unit": "% DMSO"}, {"measurement": "Average Number of hTERT Transcripts", "setting": "[2]", "result": 140.89}]}, {"smiles": "O=C(NCCCN1CCCC1=O)c1cc(-c2cccs2)on1", "note": "[compound 1518]", "values": [{"measurement": "Average Cell Viability after 24 Hours (% DMSO)", "setting": "[1]", "result": 104.12, "unit": "% DMSO"}, {"measurement": "Average Number of hTERT Transcripts", "setting": "[2]", "result": 302.69}]}, {"smiles": "Cc1cnc(CNC(=O)c2cc(-c3cccs3)on2)cn1", "note": "[compound 1519]", "values": [{"measurement": "Average Cell Viability after 24 Hours (% DMSO)", "setting": "[1]", "result": 110.34, "unit": "% DMSO"}, {"measurement": "Average Number of hTERT Transcripts", "setting": "[2]", "result": 303.81}]}, {"smiles": "COc1cc(CCNC(=O)c2cc(-c3cccs3)on2)ccc1O", "note": "[compound 1520]", "values": [{"measurement": "Average Cell Viability after 24 Hours (% DMSO)", "setting": "[1]", "result": 98.51, "unit": "% DMSO"}, {"measurement": "Average Number of hTERT Transcripts", "setting": "[2]", "result": 322.93}]}, {"smiles": "O=C(NCCc1ccccn1)c1cc(-c2cccs2)on1", "note": "[compound 1521]", "values": [{"measurement": "Average Cell Viability after 24 Hours (% DMSO)", "setting": "[1]", "result": 106.64, "unit": "% DMSO"}, {"measurement": "Average Number of hTERT Transcripts", "setting": "[2]", "result": 329.90}]}, {"smiles": "O=C(NCCCn1ccnc1)c1cc(-c2ccccc2)on1", "note": "[compound 1522]", "values": [{"measurement": "Average Cell Viability after 24 Hours (% DMSO)", "setting": "[1]", "result": 80.72, "unit": "% DMSO"}, {"measurement": "Average Number of hTERT Transcripts", "setting": "[2]", "result": 345.10}]}, {"smiles": "O=C(NCCc1ccncc1)c1cc(-c2cccs2)on1", "note": "[compound 1524]", "values": [{"measurement": "Average Cell Viability after 24 Hours (% DMSO)", "setting": "[1]", "result": 103.34, "unit": "% DMSO"}, {"measurement": "Average Number of hTERT Transcripts", "setting": "[2]", "result": 562.51}]}, {"smiles": "O=C(OCc1ccc(Cl)cc1Cl)c1ccc(-c2nnc(-c3ccccc3)o2)cc1", "note": "[compound 1525]", "values": [{"measurement": "Average Cell Viability after 24 Hours (% DMSO)", "setting": "[1]", "result": 83.30, "unit": "% DMSO"}, {"measurement": "Average Number of hTERT Transcripts", "setting": "[2]", "result": 7.73}]}, {"smiles": "CCOc1cccc(/C=N/NC(=O)CNc2ccc(C)cc2)c1O", "note": "[compound 1526]", "values": [{"measurement": "Average Cell Viability after 24 Hours (% DMSO)", "setting": "[1]", "result": 79.56, "unit": "% DMSO"}, {"measurement": "Average Number of hTERT Transcripts", "setting": "[2]", "result": 8.14}]}]}
